Laboratory results taken from ChEMBL document CHEMBL3885881, “DrugMatrix”.

Organism: Rattus norvegicus
Assay: DrugMatrix - Regimen: Daily Repeat
Type: toxicity, organism-based, Sprague-Dawley
Set-up: regimen Daily Repeat, gender Male, age 6-8 weeks
Settings: in vivo, po, route oral GAVAGE, vehicle 100 % WATER; for ABSOLUTE BASOPHIL / ABSOLUTE EOSINOPHIL / ABSOLUTE LYMPHOCYTE / ABSOLUTE MONOCYTE / ABSOLUTE SEGMENTED NEUTROPHIL / BASOPHIL / EOSINOPHIL / ERYTHROCYTE COUNT / HEMATOCRIT / HEMOGLOBIN / LEUKOCYTE COUNT / LYMPHOCYTE / MEAN CORPUSCULAR HEMOGLOBIN / MEAN CORPUSCULAR HEMOGLOBIN CONCENTRATION / MONOCYTE / NEUTROPHIL / NUCLEATED RED BLOOD CELLS / PLATELET COUNT: tissue Blood; for ALANINE AMINOTRANSFERASE / ALBUMIN / ALKALINE PHOSPHATASE / BLOOD UREA NITROGEN / CARBON DIOXIDE / CHLORIDE / CHOLESTEROL / CREATINE PHOSPHOKINASE / CREATININE / GLUCOSE / LACTATE DEHYDROGENASE / LIPASE / PHOSPHORUS / POTASSIUM / SODIUM / TOTAL BILIRUBIN / TOTAL PROTEIN / URIC ACID: tissue Plasma
[1] = 0 mg/kg, 72 h, dose level Control, time 3 day
[2] = 0 mg/kg, 120 h, dose level Control, time 5 day
[3] = 15 mg/kg, 72 h, dose level Low, time 3 day

With `Cc1ccc(NC(=O)c2ccc(CN3CCN(C)CC3)cc2)cc1Nc1nccc(-c2cccnc2)n1` [IMATINIB] the “ABSOLUTE BASOPHIL” value [1] was 0 CELLS/uL, the “ABSOLUTE EOSINOPHIL” value [1] was 151.33 CELLS/uL and the “ABSOLUTE LYMPHOCYTE” value [1] was 10599.5 CELLS/uL. For the same molecule, the “ABSOLUTE MONOCYTE” value [1] was 109.5 CELLS/uL, the “ABSOLUTE SEGMENTED NEUTROPHIL” value [1] was 1139.67 CELLS/uL and the BASOPHIL [1] was 0%. The EOSINOPHIL [1] was 0.83%, the “ERYTHROCYTE COUNT” value [1] was 5.54 x10E6/uL and the HEMATOCRIT [1] was 35.35%. For the same molecule, the HEMOGLOBIN [1] was 13.22 G/DL, the “LEUKOCYTE COUNT” value [1] was 12 x10E3/uL and the LYMPHOCYTE [1] was 89%. For the same molecule, the “MEAN CORPUSCULAR HEMOGLOBIN” value [1] was 23.88 pg, the “MEAN CORPUSCULAR HEMOGLOBIN CONCENTRATION” value [1] was 37.4 G/DL and the MONOCYTE [1] was 1%. For the same molecule, the NEUTROPHIL [1] was 9.17%, the “NUCLEATED RED BLOOD CELLS” value [1] was 0 /100WBC and the “PLATELET COUNT” value [1] was 1333.33 x10E3/uL. The “ALANINE AMINOTRANSFERASE” value [1] was 53.17 u/L, the ALBUMIN [1] was 4.32 G/DL and the “ALKALINE PHOSPHATASE” value [1] was 404.33 u/L. For the same molecule, the “BLOOD UREA NITROGEN” value [1] was 15.67 mg/dL, the “CARBON DIOXIDE” value [1] was 27.33 mmol/L and the CHLORIDE [1] was 101.83 MEQ/L. The CHOLESTEROL [1] was 68.67 mg/dL, the “CREATINE PHOSPHOKINASE” value [1] was 276.17 u/L and the CREATININE [1] was 0.18 mg/dL. The GLUCOSE [1] was 163.5 mg/dL, the “LACTATE DEHYDROGENASE” value [1] was 144.67 u/L and the LIPASE [1] was 8.83 u/L. It also gave a PHOSPHORUS [1] of 11.72 mg/dL, a POTASSIUM [1] of 5.99 MEQ/L and an SODIUM [1] of 143.57 MEQ/L. The “TOTAL BILIRUBIN” value [1] was 0.2 mg/dL, the “TOTAL PROTEIN” value [1] was 6.1 G/DL and the “URIC ACID” value [1] was 1.38 mg/dL. For the same molecule, the “ABSOLUTE BASOPHIL” value [2] was 0 CELLS/uL, the “ABSOLUTE EOSINOPHIL” value [2] was 248.67 CELLS/uL and the “ABSOLUTE LYMPHOCYTE” value [2] was 12977.83 CELLS/uL. For the same molecule, the “ABSOLUTE MONOCYTE” value [2] was 19.67 CELLS/uL, the “ABSOLUTE SEGMENTED NEUTROPHIL” value [2] was 1137.17 CELLS/uL and the BASOPHIL [2] was 0%. For the same molecule, the EOSINOPHIL [2] was 1.67%, the “ERYTHROCYTE COUNT” value [2] was 5.82 x10E6/uL and the HEMATOCRIT [2] was 36.35%. The HEMOGLOBIN [2] was 13.58 G/DL, the “LEUKOCYTE COUNT” value [2] was 14.38 x10E3/uL and the LYMPHOCYTE [2] was 90.5%. The “MEAN CORPUSCULAR HEMOGLOBIN” value [2] was 23.32 pg, the “MEAN CORPUSCULAR HEMOGLOBIN CONCENTRATION” value [2] was 37.42 G/DL and the MONOCYTE [2] was 0.17%. For the same molecule, the NEUTROPHIL [2] was 7.67%, the “NUCLEATED RED BLOOD CELLS” value [2] was 0 /100WBC and the “PLATELET COUNT” value [2] was 1337.67 x10E3/uL. The “ALANINE AMINOTRANSFERASE” value [2] was 48.5 u/L, the ALBUMIN [2] was 4.32 G/DL and the “ALKALINE PHOSPHATASE” value [2] was 354.33 u/L. The “BLOOD UREA NITROGEN” value [2] was 16 mg/dL, the “CARBON DIOXIDE” value [2] was 27.33 mmol/L and the CHLORIDE [2] was 100.33 MEQ/L. The CHOLESTEROL [2] was 68 mg/dL, the “CREATINE PHOSPHOKINASE” value [2] was 325.17 u/L and the CREATININE [2] was 0.23 mg/dL. The GLUCOSE [2] was 172 mg/dL, the “LACTATE DEHYDROGENASE” value [2] was 254.83 u/L and the LIPASE [2] was 8.33 u/L. For the same molecule, the PHOSPHORUS [2] was 12.17 mg/dL, the POTASSIUM [2] was 6.28 MEQ/L and the SODIUM [2] was 143.57 MEQ/L. For the same molecule, the “TOTAL BILIRUBIN” value [2] was 0.18 mg/dL, the “TOTAL PROTEIN” value [2] was 6.12 G/DL and the “URIC ACID” value [2] was 1.78 mg/dL. The “ABSOLUTE BASOPHIL” value [3] was 0 CELLS/uL, the “ABSOLUTE EOSINOPHIL” value [3] was 119.67 CELLS/uL and the “ABSOLUTE LYMPHOCYTE” value [3] was 6343 CELLS/uL. The “ABSOLUTE MONOCYTE” value [3] was 102.67 CELLS/uL, the “ABSOLUTE SEGMENTED NEUTROPHIL” value [3] was 568 CELLS/uL and the BASOPHIL [3] was 0%. The EOSINOPHIL [3] was 1.67%, the “ERYTHROCYTE COUNT” value [3] was 5.21 x10E6/uL and the HEMATOCRIT [3] was 33.27%. For the same molecule, the HEMOGLOBIN [3] was 12.53 G/DL, the “LEUKOCYTE COUNT” value [3] was 7.13 x10E3/uL and the LYMPHOCYTE [3] was 89.33%. For the same molecule, the “MEAN CORPUSCULAR HEMOGLOBIN” value [3] was 24.03 pg, the “MEAN CORPUSCULAR HEMOGLOBIN CONCENTRATION” value [3] was 37.7 G/DL and the MONOCYTE [3] was 1.33%. The NEUTROPHIL [3] was 7.67%, the “NUCLEATED RED BLOOD CELLS” value [3] was 0 /100WBC and the “PLATELET COUNT” value [3] was 1102.33 x10E3/uL. For the same molecule, the “ALANINE AMINOTRANSFERASE” value [3] was 49.67 u/L, the ALBUMIN [3] was 4.23 G/DL and the “ALKALINE PHOSPHATASE” value [3] was 362.67 u/L. The “BLOOD UREA NITROGEN” value [3] was 15.33 mg/dL, the “CARBON DIOXIDE” value [3] was 28.33 mmol/L and the CHLORIDE [3] was 102 MEQ/L. The CHOLESTEROL [3] was 64.67 mg/dL, the “CREATINE PHOSPHOKINASE” value [3] was 198.67 u/L and the CREATININE [3] was 0.21 mg/dL. For the same molecule, the GLUCOSE [3] was 165 mg/dL, the “LACTATE DEHYDROGENASE” value [3] was 128.33 u/L and the LIPASE [3] was 8 u/L. For the same molecule, the PHOSPHORUS [3] was 11 mg/dL, the POTASSIUM [3] was 5.66 MEQ/L and the SODIUM [3] was 144.5 MEQ/L. For the same molecule, the “TOTAL BILIRUBIN” value [3] was 0.2 mg/dL, the “TOTAL PROTEIN” value [3] was 6.03 G/DL and the “URIC ACID” value [3] was 0.97 mg/dL.
